Values quoted from earlier work in patent US20030064122A1 (priority 2001, published 2003).

Tested on: nasal mucosa of men and women
Details: introduced to the nasal mucosa of men and women

For COc1cc(CNC(=O)CCCCC=CC(C)C)ccc1O [Capsaicin, 8-Methyl-N-vanillyl-6-nonenamide], the “amount shown to induce secretion, sneezing, and/or cough” value is given as 75 micrograms.
